Measured values from patent publication US9573910B2, “Oxazolidinone antibacterial compound” (Lee Pharma Limited, priority 2013, dated 2017).
Like-named read-outs stand apart in the source and are kept apart here.

Legend:
S. maltophilia = experiment: Susceptibility test profile for commercially available antibiotics; assay type: cell-based, Stenotrophomonas maltophilia
Description: Anti bacterial evaluation of compound-I was done against Stenotrophomonas maltophilia on following parameters— • f. Agar-plate assay for different concentrations (10, 50, 100, 150 μg) • g. MIC studies • 1. With different concentrations (1000 to 5 μg/ml-˜10 different concentrations) • 2. Different time periods (4 to 32 hrs—8 different time intervals) • h. Mode of action with relation to survivability of organism • 1. Cidal/static with concentration and incubation time based) • 2. Evaluation by colony counting/dye based • i. Susceptibility test (evaluation of >40 antibiotics of different nature) • j. Antibacterial potential studies with other infectious bacteria (˜20 different strains) Results Agar-Plate Assay
Susceptibility Test Profile of S. maltophilia for Different Antibiotics (FIG. 10)

[1] = system: Stenotrophomonas maltophilia; experiment: Agar plate assay, zone of growth inhibition; assay type: cell-based; conditions: for zone of inhibition at 50 µg/disc: Stenotrophomonas maltophilia, read-out: Zone of growth inhibition in mm; for Activity against S. maltophilia (in words): agar plate
Description: To evaluate the same, 0 to 250 μg concentration range used for agar plate assay. Two percent agar plates were prepared and 24 hours grown S. maltophilia was spread on agar plate and incubated at 4° C. After 30 min, the agar plates consisting of S. maltophilia were brought to sterile environment at room temperature and using sterile borer wells were developed. […] After 24 hours of incubation at 37° C., the zone of inhibition was measured.

M. luteus = assay type: cell-based
B. sterothemophilus = assay type: cell-based
S. maltophilla = assay type: cell-based
P. putida = assay type: cell-based
K. pneumonia = assay type: cell-based
P. aeruginosa = assay type: cell-based
E. coli = assay type: cell-based
P. vulgaris = assay type: cell-based
S. typhi = assay type: cell-based
B. subtilis = assay type: cell-based
S. mutans = assay type: cell-based
B. sphaericus = assay type: cell-based
B. circulans = assay type: cell-based
Lysinobacillus = assay type: cell-based
B. cereus (1) = assay type: cell-based
B. megatherium = assay type: cell-based
B. cereus (2) = assay type: cell-based
P. mirabilis = assay type: cell-based
B. cereus (3) = assay type: cell-based

Compound: CC[C@H]1OC(=O)[C@H](C)[C@@H](O[C@H]2C[C@@](C)(OC)[C@@H](O)[C@H](C)O2)[C@H](C)[C@@H](O[C@@H]2O[C@H](C)C[C@H](N(C)C)[C@H]2O)[C@](C)(OC)C[C@@H](C)C(=O)[C@H](C)[C@@H](O)[C@]1(C)O [Clarithromycin]
- Zone (mm) (S. maltophilia; Quantity 15 μg): Resistant

Compound: O=C1OCCN1/N=C/c1ccc([N+](=O)[O-])o1 [Furazolidone]
- Zone (mm) (S. maltophilia; Quantity 50 μg): Resistant

Compound: CCC[C@@H]1C[C@@H](C(=O)N[C@@H]([C@H]2O[C@H](SC)[C@H](O)[C@@H](O)[C@H]2O)[C@@H](C)O)N(C)C1 [Lincomycin]
- Zone (mm) (S. maltophilia; Quantity 2 μg): Resistant

Compound: CC(=O)NC[C@H]1CN(c2ccc(N3CCOCC3)c(F)c2)C(=O)O1 [Linezolid]
- zone of inhibition at 50 µg/disc ([1]; S. maltophilia, agar plates, 50 μg of each compound dissolved in DMSO): 0 mm
- Activity against S. maltophilia (in words) [1]: not inhibitory
- Zone of growth inhibition in mm (M. luteus): 45 mm
- Zone of growth inhibition in mm (B. sterothemophilus): 00 mm
- Zone of growth inhibition in mm (S. maltophilla): 00 mm
- Zone of growth inhibition in mm (P. putida): 00 mm
- Zone of growth inhibition in mm (K. pneumonia): 35 mm
- Zone of growth inhibition in mm (P. aeruginosa): 00 mm
- Zone of growth inhibition in mm (E. coli): 35 mm
- Zone of growth inhibition in mm (P. vulgaris): 00 mm
- Zone of growth inhibition in mm (S. typhi): 40 mm
- Zone of growth inhibition in mm (B. subtilis): 40 mm
- Zone of growth inhibition in mm (S. mutans): 40 mm
- Zone of growth inhibition in mm (B. sphaericus): 30 mm
- Zone of growth inhibition in mm (B. circulans): 38 mm
- Zone of growth inhibition in mm (Lysinobacillus): 40 mm
- Zone of growth inhibition in mm (B. cereus (1)): 00 mm
- Zone of growth inhibition in mm (B. megatherium): 37 mm
- Zone of growth inhibition in mm (B. cereus (2)): 35 mm
- Zone of growth inhibition in mm (P. mirabilis): 35 mm
- Zone of growth inhibition in mm (B. cereus (3)): 45 mm
- Zone of growth inhibition in mm (S. paratyphi): 00 mm

Compound: CCn1cc(C(=O)O)c(=O)c2ccc(C)nc21 [Nalidixic]
- Zone (mm) (S. maltophilia; Quantity 30 μg): 7 mm

Compound: CCN[C@@H]1C[C@H](N)[C@@H](O[C@H]2OC(CN)=CC[C@H]2N)[C@H](O)[C@H]1O[C@H]1OC[C@](C)(O)[C@H](NC)[C@H]1O.CCN[C@@H]1C[C@H](N)[C@@H](O[C@H]2OC(CN)=CC[C@H]2N)[C@H](O)[C@H]1O[C@H]1OC[C@](C)(O)[C@H](NC)[C@H]1O.O=S(=O)(O)O.O=S(=O)(O)O.O=S(=O)(O)O.O=S(=O)(O)O.O=S(=O)(O)O [Netillin(Netilmicin sulphate), Netilmicin sulphate]
- Zone (mm) (S. maltophilia; Quantity 30 μg): 7 mm

Compound: CN[C@H](CC(C)C)C(=O)N[C@H]1C(=O)N[C@@H](CC(N)=O)C(=O)N[C@H]2C(=O)N[C@H]3C(=O)N[C@H](C(=O)N[C@H](C(=O)O)c4cc(O)cc(O)c4-c4cc3ccc4O)[C@H](O)c3ccc(c(Cl)c3)Oc3cc2cc(c3O[C@@H]2O[C@H](CO)[C@@H](O)[C@H](O)[C@H]2O[C@H]2C[C@](C)(N)[C@H](O)[C@H](C)O2)Oc2ccc(cc2Cl)[C@H]1O [Vancomycin]
- zone of inhibition at 50 µg/disc [1]: 0 mm
- Activity against S. maltophilia (in words) [1]: not inhibitory
- Zone of growth inhibition in mm (M. luteus): 32 mm
- Zone of growth inhibition in mm (B. sterothemophilus): 00 mm
- Zone of growth inhibition in mm (S. maltophilla): 00 mm
- Zone of growth inhibition in mm (P. putida): 00 mm
- Zone of growth inhibition in mm (K. pneumonia): 25 mm
- Zone of growth inhibition in mm (P. aeruginosa): 00 mm
- Zone of growth inhibition in mm (E. coli): 25 mm
- Zone of growth inhibition in mm (P. vulgaris): 00 mm
- Zone of growth inhibition in mm (S. typhi): 14 mm
- Zone of growth inhibition in mm (B. subtilis): 25 mm
- Zone of growth inhibition in mm (S. mutans): 30 mm
- Zone of growth inhibition in mm (B. sphaericus): 12 mm
- Zone of growth inhibition in mm (B. circulans): 27 mm
- Zone of growth inhibition in mm (Lysinobacillus): 30 mm
- Zone of growth inhibition in mm (B. cereus (1)): 00 mm
- Zone of growth inhibition in mm (B. megatherium): 27 mm
- Zone of growth inhibition in mm (B. cereus (2)): 27 mm
- Zone of growth inhibition in mm (P. mirabilis): 27 mm
- Zone of growth inhibition in mm (B. cereus (3)): 32 mm
- Zone of growth inhibition in mm (S. paratyphi): 25 mm

Compound: Gentamicin
- Zone (mm) (S. maltophilia; Quantity 10 μg): 7 mm

Compound: Penicillin
- Zone (mm) (S. maltophilia; Quantity 10 μg): 6 mm

Compound: Teicoplanin
- Zone (mm) (S. maltophilia; Quantity 30 μg): 4 mm
